From the METLIN SMRT retention time set (Domingo-Almenara et al. 2019)

Assay: gradient 5% acetonitrile 3 min, to 50% in 2 min, to 85% in 15 min, held 3 min, 100 µL/min
Conditions: column: Zorbax Extend-C18 2.1 x 50 mm; eluents: water / acetonitrile, 0.1% formic acid
Procedure, shortened: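 Values are retention times taken from adduct peaks that software picked and an analyst inspected. The pure standards were run as mixtures of ~100 molecules on HPLC linked to a quadrupole time-of-flight mass spectrometer, in positive and negative ionization mode. A Zorbax Extend-C18 column (2.1 × 50 mm, 1.8 μm) was used at 100 μL/min with water and acetonitrile, each including 0.1% formic acid.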

Work on `O=C(c1ccc(C(F)(F)F)cc1)N1CCC(n2c(-c3ccco3)nc3cccnc32)C1` (configuration not stated) yielded an RP-LC retention time of 826 s.

In the case of `CN(C)CCOc1ccc2c(c1)C(=O)/C(=C\c1ncc([N+](=O)[O-])n1C)C2`, the RP-LC retention time is reported as 695 s.

With `COc1ccc(Cc2nc(-c3ccc4nnc(C)n4c3)no2)cc1Cl` the RP-LC retention time was 822 s.

Compound `Cc1ccn2c(NC(=O)c3ccc(F)cc3)c(-c3ccc(F)cc3)nc2c1` has an RP-LC retention time of 672 s.

Work on `COc1ccc(NC(=O)CN2CCC(c3nc(-c4cccs4)no3)CC2)cc1` yielded an RP-LC retention time of 670 s.

`O=C(CCc1ccccc1)NCC(=O)Nc1nc2ccccc2[nH]1` showed an RP-LC retention time of 640 s.

Work on `CCc1nc(-c2cccc(-c3noc(COc4ccc(F)cc4)n3)c2)cs1` yielded an RP-LC retention time of 1290 s.

`CN(C)C(=O)c1ccc2c(c1)N(CC(=O)NC1CCCCC1)C(=O)C1CCCCN21` (configuration not stated) showed an RP-LC retention time of 743 s.

In the case of `CC(=O)N1CCc2cc(C)c(S(=O)(=O)NCc3ccco3)cc21`, the RP-LC retention time is reported as 742 s.

`CCCCOc1c(C(=O)c2c(F)cc(C)cc2F)cnc2[nH]ncc12` showed an RP-LC retention time of 916 s.

With `O=C(c1cncc(Br)c1)N1CCC(c2nnc(-c3ccco3)s2)CC1` the RP-LC retention time was 682 s.

Compound `Cc1cc(C)n(Cc2nc(-c3ccc(NC(=O)c4ccco4)cc3)oc2C)n1` has an RP-LC retention time of 818 s.

With `O=C(Nc1ccc(F)c(F)c1)c1cc2n(n1)CCCC2` the RP-LC retention time was 887 s.

Compound `CC(C)NC(=O)N1[C@H]2CC[C@@H]1c1cnc(-c3ccc(F)cc3)nc1C2` has an RP-LC retention time of 839 s.

For `COCCCNC(=O)C1CCN(S(=O)(=O)c2ccc3c(c2)NC(=O)CO3)CC1`, the RP-LC retention time was 627 s.

With `COc1ccc(CC(=O)Nc2ccc3c(c2)CCC(=O)N3C)c(Cl)c1` the RP-LC retention time was 768 s.

Work on `CC(=O)N1c2ccc(S(=O)(=O)N3CCCC3)cc2CC1C(=O)NCCN(C)C1CCCCC1` (configuration not stated) yielded an RP-LC retention time of 577 s.

Work on `CN1C(=O)c2cccn2CC1C(=O)N1CCCCC1` (configuration not stated) yielded an RP-LC retention time of 614 s.

Compound `Cc1ccc(C(=O)N2CCCCCCNC(=O)[C@@H]3CCC[C@@H]32)s1` has an RP-LC retention time of 792 s.

In the case of `O=S(=O)(c1ccccc1)N1CCC(c2noc(-c3ccc(Cl)cc3)n2)CC1`, the RP-LC retention time is reported as 1170 s.

`Cc1ccc(CNC(=O)C2CCCN(c3ncc(-c4cccc(F)c4)cn3)C2)o1` (configuration not stated) showed an RP-LC retention time of 851 s.

Compound `CCCn1c(=O)sc2cc(S(=O)(=O)N3CCC(C(=O)Nc4cc(C)ccc4C)CC3)ccc21` has an RP-LC retention time of 985 s.

`O=C(NCc1ccccn1)C1CCN(C(=O)c2ncn3c2COC(c2ccc(Cl)cc2)C3)CC1` (configuration not stated) gave an RP-LC retention time of 644 s.

Compound `CCN1CCN(c2nc(-c3cccnc3)nc3ccccc23)CC1` has an RP-LC retention time of 524 s.

With `Cc1cc(=O)n2c(-c3cccc(NC(=O)c4sc(C)nc4C)c3)csc2n1` the RP-LC retention time was 645 s.

`C=Cc1ccc(CSc2nnc3c(S(=O)(=O)N4CCCC4)cccn23)cc1` gave an RP-LC retention time of 884 s.

Work on `CCOc1ccc(NC(=O)N(C)CCc2noc(C3CCCCC3)n2)cc1` yielded an RP-LC retention time of 942 s.

Compound `CCCN1C(=O)COc2ccc(-c3csc(NC(=O)c4ccccc4Cl)n3)cc21` has an RP-LC retention time of 1030 s.

In the case of `Cc1ccc(Cn2c(N3CCCC(C(=O)NCc4cccs4)C3)nc3ccsc3c2=O)cc1` (configuration not stated), the RP-LC retention time is reported as 952 s.

With `CCCC(=O)N1CCc2c([nH]c3ccccc23)C12C(=O)Nc1ccc(Br)cc12` (configuration not stated) the RP-LC retention time was 924 s.

Compound `CCCn1ccc2sc(C)c(C(=O)NCc3cccc(C)c3)c2c1=O` has an RP-LC retention time of 948 s.

Compound `Brc1ccccc1Cc1nc(-c2ccc3nncn3c2)no1` has an RP-LC retention time of 724 s.

Work on `Cc1onc(-c2ccccc2Cl)c1C(=O)Nc1nnc(-c2cccs2)o1` yielded an RP-LC retention time of 767 s.

Compound `COc1ccc(-c2noc(C3CCCN3C(=O)Nc3ccc(F)c(Cl)c3)n2)cc1` (configuration not stated) has an RP-LC retention time of 1030 s.

`O=S(=O)(c1cc(F)ccc1F)N1CCc2nc(-c3ccc(Cl)cc3)ncc2C1` gave an RP-LC retention time of 1210 s.

With `Cc1nc(-c2ccc(C(=O)NC3CC3)cc2)no1` the RP-LC retention time was 668 s.

`COc1ccc2nc(C(=O)NC3CCCCCC3)cn2n1` showed an RP-LC retention time of 878 s.
